The values below come from US20210395239A1 (Hoffmann-La Roche Inc., priority 2018, published 2021).

Each structure is given as a SMILES string.

One data set has as its target T1, CYP2C9 (Homo sapiens, UniProt P11712).
T1 construct: tissue BD-Gentest 452117; host or cells: human liver microsomes
Put plainly: CYP inhibition assay in human liver microsome, CYP2C9. The data set is classed as in vitro ADME. Conditions: substrate diclofenac 5 μM, first value of 2C9/2D6/3A4; for inhibition at 5 min, 10 µM: human, human liver microsomes, probe diclofenac 5 μM. An outline of the steps:
(§1)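 Pooled human liver microsomes with a substrate for each CYP were incubated with compound at 37 °C after NADPH addition, for 5 min (CYP2D6: 10 min), then quenched with acetonitrile containing labelled metabolite standards. Metabolite/internal-standard peak area ratios were measured by RapidFire MS/MS. % inhibition was scaled between DMSO and standard-inhibitor controls.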
On the technique in general: Microsomes from liver hold many membrane-bound enzymes, among them those of drug oxidation.

A further data set deals with T2, CYP2D6 (Homo sapiens, UniProt P10635).
T2 construct: tissue BD-Gentest 452117; host or cells: human liver microsomes
Briefly: CYP inhibition assay in human liver microsome, CYP2D6. The format is in vitro ADME. Conditions: substrate dextromethorphan 5 μM, second value of 2C9/2D6/3A4; for inhibition at 10 min, 10 µM: human, human liver microsomes, probe dextromethorphan 5 μM. In short, it runs like this: as §1

Another data set addresses T3, human TLR7 (Homo sapiens, UniProt Q9NYK1).
T3 construct: host or cells: HEK293 (HEK-Blue hTLR7)
T3 sequence (Q9NYK1 27-1049): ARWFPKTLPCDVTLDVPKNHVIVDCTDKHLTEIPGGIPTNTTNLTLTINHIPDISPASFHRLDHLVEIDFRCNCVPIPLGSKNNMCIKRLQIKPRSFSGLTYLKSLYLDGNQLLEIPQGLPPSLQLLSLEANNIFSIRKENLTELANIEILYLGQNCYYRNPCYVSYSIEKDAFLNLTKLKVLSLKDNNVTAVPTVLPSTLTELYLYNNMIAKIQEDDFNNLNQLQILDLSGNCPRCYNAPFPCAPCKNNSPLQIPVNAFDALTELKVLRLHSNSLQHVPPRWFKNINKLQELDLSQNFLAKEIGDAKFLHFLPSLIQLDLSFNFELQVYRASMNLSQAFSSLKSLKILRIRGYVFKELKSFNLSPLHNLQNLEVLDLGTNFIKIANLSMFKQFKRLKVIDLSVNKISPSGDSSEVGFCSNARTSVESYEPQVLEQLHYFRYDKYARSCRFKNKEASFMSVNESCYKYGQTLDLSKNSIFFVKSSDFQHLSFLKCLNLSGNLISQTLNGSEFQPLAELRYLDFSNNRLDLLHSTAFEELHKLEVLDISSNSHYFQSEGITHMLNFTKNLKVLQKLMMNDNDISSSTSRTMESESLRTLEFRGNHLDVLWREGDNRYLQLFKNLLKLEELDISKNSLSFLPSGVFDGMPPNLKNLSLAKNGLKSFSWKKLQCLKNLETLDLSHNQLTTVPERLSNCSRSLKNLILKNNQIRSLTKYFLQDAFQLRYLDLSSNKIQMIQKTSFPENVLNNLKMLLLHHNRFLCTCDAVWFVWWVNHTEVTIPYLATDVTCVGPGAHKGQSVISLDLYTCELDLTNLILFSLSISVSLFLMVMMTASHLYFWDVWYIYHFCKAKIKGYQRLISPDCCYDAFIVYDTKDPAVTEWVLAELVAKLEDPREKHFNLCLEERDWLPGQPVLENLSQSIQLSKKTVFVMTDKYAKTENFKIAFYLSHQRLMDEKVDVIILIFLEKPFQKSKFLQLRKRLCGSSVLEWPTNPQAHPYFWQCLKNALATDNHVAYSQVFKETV
Briefly: HEK293-Blue-hTLR-7 cells assay (SEAP reporter, R848 stimulation). The format is cell-based. The settings on record: HEK293-Blue-hTLR7 cells, R848, 20 hrs; read-out: HEK/hTLR7 IC50. An outline of the steps:
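HEK293-Blue-hTLR7 cells (NF-κB/AP-1-driven SEAP reporter) were stimulated with R848 alongside serially diluted compound at 1% final DMSO for 20 h at 37 °C. Supernatant SEAP was then developed with QUANTI-Blue for 2 h at 37 °C and absorbance read at 620–655 nm; antagonism is measured as reduced reporter signal.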

T2 sequence (P10635 whole entry): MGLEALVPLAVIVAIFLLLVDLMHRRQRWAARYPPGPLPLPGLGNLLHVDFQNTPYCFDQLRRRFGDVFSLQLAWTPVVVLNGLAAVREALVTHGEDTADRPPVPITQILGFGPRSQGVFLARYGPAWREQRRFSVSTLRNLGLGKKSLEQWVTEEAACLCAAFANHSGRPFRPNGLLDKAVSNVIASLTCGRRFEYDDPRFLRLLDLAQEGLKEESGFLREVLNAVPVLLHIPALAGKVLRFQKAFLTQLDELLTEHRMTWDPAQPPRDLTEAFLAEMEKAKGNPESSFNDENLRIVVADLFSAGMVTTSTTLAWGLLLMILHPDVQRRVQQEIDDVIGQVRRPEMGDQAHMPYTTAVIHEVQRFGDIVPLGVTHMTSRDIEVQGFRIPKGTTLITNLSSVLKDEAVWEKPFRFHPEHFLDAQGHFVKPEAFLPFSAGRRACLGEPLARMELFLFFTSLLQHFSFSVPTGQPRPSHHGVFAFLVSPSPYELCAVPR
T1 sequence (P11712 whole entry): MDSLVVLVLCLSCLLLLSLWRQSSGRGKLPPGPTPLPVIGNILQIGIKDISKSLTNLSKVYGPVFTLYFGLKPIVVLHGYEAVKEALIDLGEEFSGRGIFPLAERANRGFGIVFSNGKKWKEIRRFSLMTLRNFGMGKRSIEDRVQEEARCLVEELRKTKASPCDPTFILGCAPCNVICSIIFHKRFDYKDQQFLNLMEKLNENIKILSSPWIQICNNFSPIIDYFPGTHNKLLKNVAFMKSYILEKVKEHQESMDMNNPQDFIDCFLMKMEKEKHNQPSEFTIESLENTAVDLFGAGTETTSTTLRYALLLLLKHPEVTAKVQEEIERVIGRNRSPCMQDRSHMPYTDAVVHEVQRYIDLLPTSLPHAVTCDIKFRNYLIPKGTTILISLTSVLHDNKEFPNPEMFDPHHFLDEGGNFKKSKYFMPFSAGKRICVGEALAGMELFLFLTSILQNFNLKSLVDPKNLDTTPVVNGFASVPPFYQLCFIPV

With `COC1CN(c2nccc(N3CCN(C[C@H]4CN(c5ccc(C#N)c6ncccc56)C[C@@H](C)O4)CC3)n2)C[C@H]1N` (stereo in doubt) [Example 52, 5-[(2S,6R)-2-[[4-[2-[(3R,4R)-3-amino-4-methoxy-pyrrolidin-1-yl]pyrimidin-4-yl]piperazin-1-yl]methyl]-6-methyl-morpholin-4-yl]quinoline-8-carbonitrile], the “CYP (%) 2C9 inhibition” value at CYP2C9 is reported as 3.5%. Moreover, at CYP2D6, the “CYP (%) 2D6 inhibition” value came out at 10.5%. In addition, on human TLR7, the IC50 came out at 15 nM.
For `CO[C@H]1CN(c2nccc(N3CCN(C[C@H]4CN(c5ccc(C#N)c6ncccc56)C[C@@H](C)O4)CC3)n2)CC1N` (stereo in doubt) [Example 53, 5-[(2S,6R)-2-[[4-[2-[(3S,4S)-3-amino-4-methoxy-pyrrolidin-1-yl]pyrimidin-4-yl]piperazin-1-yl]methyl]-6-methyl-morpholin-4-yl]quinoline-8-carbonitrile], in that order: −4.5%, 21.5% and 8 nM.
As to `C[C@@H]1CN(c2ccc(C#N)c3ncccc23)C[C@H](CN2CCN(c3cncc(N4CCNCC4)c3)CC2)O1` [Example 7, 5-[(2R,6S)-2-methyl-6-[[4-(5-piperazin-1-yl-3-pyridyl)piperazin-1-yl]methyl]morpholin-4-yl]quinoline-8-carbonitrile], the inhibition – broadly, the drop in the measured response relative to a control, in per cent – at 5 min, 10 µM against CYP2C9 is 2%. Besides, the inhibition at 10 min, 10 µM at CYP2D6 worked out at 7.5%. Moreover, at human TLR7, the IC50 was found to be 34 nM.
The corresponding values for `C[C@@H]1CN(c2ccc(C#N)c3ncccc23)C[C@H](CN2CCN(c3ccc(N4CCNCC4)cn3)CC2)O1` [Example 8, 5-[(2R,6S)-2-methyl-6-[[4-(5-piperazin-1-yl-2-pyridyl)piperazin-1-yl]methyl]morpholin-4-yl]quinoline-8-carbonitrile] are 1%, 6% and 50 nM.
As for `C[C@@H]1CN(c2ccc(C#N)c3ncccc23)C[C@H](CN2CCN(c3cc(N4CCNCC4)ccn3)CC2)O1` [Example 9, 5-[(2R,6S)-2-methyl-6-[[4-(4-piperazin-1-yl-2-pyridyl)piperazin-1-yl]methyl]morpholin-4-yl]quinoline-8-carbonitrile], the inhibition at 5 min, 10 µM on CYP2C9 was -7.5%. Also, on CYP2D6, the inhibition at 10 min, 10 µM is 2%. Moreover, the IC50 on human TLR7 is 19 nM.
For `C[C@@H]1CN(c2ccc(C#N)c3ncccc23)C[C@H](CN2CCC(C#N)(c3ccc(N4CCNCC4)cc3)CC2)O1` [Example 11, 5-[(2S,6R)-2-[[4-cyano-4-(4-piperazin-1-ylphenyl)-1-piperidyl]methyl]-6-methyl-morpholin-4-yl]quinoline-8-carbonitrile], the inhibition at 5 min, 10 µM on CYP2C9 is 0.5%. Also, on CYP2D6, the inhibition at 10 min, 10 µM was determined as 0%. At human TLR7, the IC50 came out at 23 nM.
For `C[C@@H]1CN(c2ccc(C#N)c3ncccc23)C[C@H](CN2CCN(c3nccc(N4CCNCC4)n3)CC2)O1` [Example 14, 5-[(2R,6S)-2-methyl-6-[[4-(4-piperazin-1-ylpyrimidin-2-yl)piperazin-1-yl]methyl]morpholin-4-yl]quinoline-8-carbonitrile], in that order: 0%, 16.5% and 6 nM.
The corresponding values for `C[C@@H]1CN(c2ccc(C#N)c3ncccc23)C[C@H](CN2CCN(c3ccnc(N4CCNCC4)n3)CC2)O1` [Example 15, 5-[(2R,6S)-2-methyl-6-[[4-(2-piperazin-1-ylpyrimidin-4-yl)piperazin-1-yl]methyl]morpholin-4-yl]quinoline-8-carbonitrile] are 9%, -2.5% and 7 nM.
The corresponding values for `C[C@@H]1CN(c2ccc(C#N)c3ncccc23)C[C@H](CN2CCN(c3ccc([C@@H]4CNCCO4)cc3)CC2)O1` [Example 19, 5-[(2R,6S)-2-methyl-6-[[4-[4-[(2R)-morpholin-2-yl]phenyl]piperazin-1-yl]methyl]morpholin-4-yl]quinoline-8-carbonitrile] are 11.5%, 0.5% and 25 nM.
For `C[C@@H]1CN(c2ccc(C#N)c3ncccc23)C[C@H](CN2CCN(c3cc(N4CCN(C)CC4)ncn3)CC2)O1` [Example 21, 5-[(2R,6S)-2-methyl-6-[[4-[6-(4-methylpiperazin-1-yl)pyrimidin-4-yl]piperazin-1-yl]methyl]morpholin-4-yl]quinoline-8-carbonitrile], the inhibition at 5 min, 10 µM on CYP2C9 was -3%. In addition, the inhibition at 10 min, 10 µM against CYP2D6 came out at 2.5%. The IC50 at human TLR7 turned out to be 16 nM.
Consider `C[C@@H]1CN(c2ccc(C#N)c3ncccc23)C[C@H](CN2CCN(c3ccnc(N4CCN(C)CC4)n3)CC2)O1` [Example 22, 5-((2R,6S)-2-methyl-6-((4-(2-(4-methylpiperazin-1-yl)pyrimidin-4-yl)piperazin-1-yl)methyl)morpholino)quinoline-8-carbonitrile], for which the inhibition at 5 min, 10 µM at CYP2C9 amounted to 20%. For the same compound, the inhibition at 10 min, 10 µM on CYP2D6 was 2%. In addition, the IC50 on human TLR7 is 10 nM.
On to `C[C@@H]1CN(c2ccc(C#N)c3ncccc23)C[C@H](CN2CCN(c3ccnc(N[C@H]4CNC[C@H]4F)n3)CC2)O1` [Example 24, 5-[(2S,6R)-2-[[4-[2-[[(3S,4R)-4-fluoropyrrolidin-3-yl]amino]pyrimidin-4-yl]piperazin-1-yl]methyl]-6-methyl-morpholin-4-yl]quinoline-8-carbonitrile], for which the inhibition at 5 min, 10 µM against CYP2C9 is 3.5%. Moreover, at CYP2D6, the inhibition at 10 min, 10 µM is 6%. The IC50 at human TLR7 was found to be 38 nM.
Turning to `C[C@@H]1CN(c2ccc(C#N)c3ncccc23)C[C@H](CN2CCN(c3ccnc(N4CCNCC(O)C4)n3)CC2)O1` (stereo partly drawn) [Example 25, 5-[(2S,6R)-2-[[4-[2-(6-hydroxy-1,4-diazepan-1-yl)pyrimidin-4-yl]piperazin-1-yl]methyl]-6-methyl-morpholin-4-yl]quinoline-8-carbonitrile], the inhibition at 5 min, 10 µM against CYP2C9 was -5.5%. Also, the inhibition at 10 min, 10 µM against CYP2D6 was 5.5%. At human TLR7, the IC50 is 26 nM.
For `C[C@@H]1CN(c2ccc(C#N)c3ncccc23)C[C@H](CN2CCN(c3ccnc(N4CCN[C@@H](CO)C4)n3)CC2)O1` [Example 29, 5-[(2S,6R)-2-[[4-[2-[(3R)-3-(hydroxymethyl)piperazin-1-yl]pyrimidin-4-yl]piperazin-1-yl]methyl]-6-methyl-morpholin-4-yl]quinoline-8-carbonitrile], in that order: -2%, 8.5% and 16 nM.
For `C[C@@H]1CN(c2ccc(C#N)c3ncccc23)C[C@H](CN2CCN(c3cccc(NC4CNC4)n3)CC2)O1` [Example 38], in that order: 20%, 20.5% and 16 nM.
Consider `COC1CN(c2ccc(N3CCN(C[C@H]4CN(c5ccc(C#N)c6ncccc56)C[C@@H](C)O4)CC3)cn2)CC1N` (stereo partly drawn) [Example 43, 5-[(2S,6R)-2-[[4-[6-(3-amino-4-methoxy-pyrrolidin-1-yl)-3-pyridyl]piperazin-1-yl]methyl]-6-methyl-morpholin-4-yl]quinoline-8-carbonitrile], for which the inhibition at 5 min, 10 µM on CYP2C9 was 2.5%. Further, the inhibition at 10 min, 10 µM on CYP2D6 was -11%. The IC50 on human TLR7 stood at 22 nM.
